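Compound exposure: 48 hours, 5 concentrations, 96-well plates. GI50 marks 50% less growth. TGI denotes the concentration required for complete inhibition of growth.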
What was measured:
Assay in all cases: growth of human tumour cells (NCI), 48 h
HT29 colon = tested on: HT29 colon
MALME-3M melanoma = tested on: MALME-3M melanoma
SK-MEL-28 melanoma = tested on: SK-MEL-28 melanoma
SNB-19 CNS = tested on: SNB-19 CNS
EKVX NSCLC = tested on: EKVX NSCLC
SF-295 CNS = tested on: SF-295 CNS
UACC-257 melanoma = tested on: UACC-257 melanoma
ACHN renal = tested on: ACHN renal
DU-145 prostate = tested on: DU-145 prostate
T-47D breast = tested on: T-47D breast

Row | SMILES | GI50 (HT29 colon) | TGI (HT29 colon) | GI50 (MALME-3M melanoma) [µM] | TGI (MALME-3M melanoma) [µM] | GI50 (SK-MEL-28 melanoma) | TGI (SK-MEL-28 melanoma) | GI50 (SNB-19 CNS) | TGI (SNB-19 CNS) | GI50 (EKVX NSCLC) | TGI (EKVX NSCLC) | GI50 (SF-295 CNS) | TGI (SF-295 CNS) | GI50 (UACC-257 melanoma) | TGI (UACC-257 melanoma) | GI50 (ACHN renal) | TGI (ACHN renal) | TGI (DU-145 prostate) [µM] | TGI (T-47D breast) [µM] | GI50 (DU-145 prostate) [µM] | GI50 (T-47D breast) [µM]
1 | CC[O-].Cc1ccc2cccc([O-])c2n1.Cc1ccc2cccc([O-])c2n1.Cc1ccc2cccc([O-])c2n1.[Ti+4] | 30.6 µM | > 88.9 µM | > 46 | > 66.3 | > 65.2 µM | > 100 µM | > 53.9 µM | > 100 µM | > 46 µM | > 73.5 µM | 17.5 µM | > 62 µM | 18.6 µM | > 85 µM | 50.3 µM | > 100 µM |  |  |  | 
2 | COc1ccc2c(=O)c3cc([N+](=O)[O-])ccc3n(C)c2c1 |  |  |  | > 100 |  | > 100 µM |  | > 100 µM |  | > 100 µM |  | > 100 µM |  | > 100 µM |  | > 100 µM | > 100 | > 100 |  | 
3 | COc1cc2cc[n+]3c4cc(OC)c(OC)cc4c(C)cc3c2cc1OC |  | > 100 µM |  | > 100 |  | > 100 µM |  | > 100 µM |  | > 100 µM |  | > 100 µM |  | > 100 µM |  | > 100 µM |  |  |  | 
4 | CCOC(=O)C1=C(C)NC2SC(=O)/C(=C\c3ccccc3)N2C1c1ccccc1 (configuration not stated) | > 100 µM | > 100 µM |  |  | > 100 µM | > 100 µM | > 100 µM | > 100 µM | > 100 µM | > 100 µM | > 100 µM | > 100 µM | > 100 µM | > 100 µM | > 100 µM | > 100 µM | > 100 | > 100 | > 100 | 38.2
5 | CN1c2ccccc2S(=O)(=O)n2c(COc3ccc(Cl)cc3)nnc21 |  | > 100 µM |  |  |  | > 100 µM |  | > 100 µM |  | > 100 µM |  | 92.7 µM |  | > 100 µM |  | > 100 µM | > 100 | > 100 |  | 
6 | O=C(O)C#CCO |  | > 100 µM |  | > 100 |  | > 100 µM |  | > 100 µM |  | > 100 µM |  | > 100 µM |  | > 100 µM |  | > 100 µM |  |  |  | 
7 | C/C(=N/NC(=O)C(N)=O)C(CC(C(=O)Nc1ccccc1C)/C(C)=N\NC(=O)C(N)=O)C(=O)Nc1ccccc1C (configuration not stated) |  | > 100 µM |  | > 100 |  | > 100 µM |  | > 100 µM |  | > 100 µM |  | > 100 µM |  | > 100 µM |  | > 100 µM |  |  |  | 
8 | COC(=O)C1CCC(Nc2cccc(C(F)(F)F)c2)=N1 (configuration not stated) |  | > 100 µM |  | > 100 |  | > 100 µM |  | > 100 µM |  | > 100 µM |  | > 100 µM |  | > 100 µM |  | > 100 µM |  |  |  | 
9 | NCC1OC(OC2C(CO)OC(OC3C(O)C(N)CC(N)C3OC3OC(CO)C(O)C(O)C3N)C2O)C(N)C(O)C1O (configuration not stated) | > 50 µg/mL | > 50 µg/mL |  |  | > 50 µg/mL | > 50 µg/mL | > 50 µg/mL | > 50 µg/mL | > 50 µg/mL | > 50 µg/mL | > 50 µg/mL | > 50 µg/mL | > 50 µg/mL | > 50 µg/mL | > 50 µg/mL | > 50 µg/mL |  |  |  | 
10 | CC1=C(c2cc(C(=O)Nc3ccc(Cl)c(Cl)c3)nc(N)n2)Sc2ccccc2N1 |  | > 100 µM |  | > 100 |  | > 100 µM |  | > 100 µM |  | > 100 µM |  | > 100 µM |  | > 100 µM |  | > 100 µM |  |  |  | 
11 | CCC[CH2][Sn]([CH2]CCC)([O]C(=O)c1nccnc1N)[O]C(=O)c1nccnc1N | 1.59 µM | 3.05 µM | 0.57 | 2.04 | 0.769 µM | 2.04 µM | 1.4 µM | 2.69 µM | 1.02 µM | 2.18 µM | 1.26 µM | 2.52 µM | 1.03 µM | 2.23 µM | 1.02 µM | 2.19 µM |  |  |  | 
12 | CCN(CC)CCNC(=O)c1cccc2cc3ccccc3nc12 |  | 35 µM |  |  |  | 23.1 µM |  | 64.7 µM |  | 41.6 µM |  | 37.1 µM |  |  |  | 22.3 µM |  |  |  | 
13 | Cc1ccccc1N=Nc1c(O)[nH]c2ccccc12 |  | > 100 µM |  |  |  | > 100 µM |  | > 100 µM |  | > 100 µM |  | > 100 µM |  | > 100 µM |  | > 100 µM | > 100 | > 100 |  | 
14 | COC(=O)[C@@]1(C)CC[C@]2(C)CC[C@]3(C)C4=CC=C5C(=CC(=O)C(O)=C5C)[C@]4(C)CC[C@@]3(C)[C@@H]2C1 | 0.207 µM | 0.445 µM | 0.232 | 0.446 | 0.244 µM | 0.601 µM | 0.276 µM | 0.936 µM | 0.295 µM | 1.11 µM | 0.407 µM | 1.62 µM | 0.279 µM | 0.767 µM | 0.154 µM | 0.29 µM | 0.382 |  | 0.182 | 
15 | O=C(O)CCC1(Br)CCCCC(Br)C1=O (configuration not stated) |  | > 100 µM |  | > 100 |  | > 100 µM |  | > 100 µM |  | > 100 µM |  | > 100 µM |  | > 100 µM |  | > 100 µM |  |  |  | 
16 | COc1cc(C2CC(c3cc(C)ccc3C)=NN2c2ccc(S(=O)(=O)NC(=O)NCc3ccccc3)cc2)cc(OC)c1OC (configuration not stated) | 3.87 µM | 47.7 µM | 3.48 | 9.61 | 2.26 µM | 5.5 µM | 3.75 µM | 43.8 µM |  |  |  |  | 3.53 µM | 20.1 µM | 3.47 µM | 13.2 µM | 30.8 | 30.1 | 6.05 | 4.19
17 | COc1ccc(-c2cc(/C=C3\C(=O)Nc4ccc(OC)cc43)[nH]n2)cc1 | 1.58 µM | > 100 µM | > 100 | > 100 | > 100 µM | > 100 µM | 77.2 µM | > 100 µM |  |  | 2.89 µM | > 100 µM | > 100 µM | > 100 µM | > 100 µM | > 100 µM | > 100 | > 100 | > 100 | > 100
18 | N#CC(C#N)=CSc1ccccc1 |  | 98.2 µM |  |  |  | 81.1 µM |  | > 100 µM |  | > 100 µM |  | > 100 µM |  | > 100 µM |  | > 100 µM |  |  |  | 
19 | CC(=O)OCC1OC(OC2=C(CC=C(Cl)Cl)C(=O)c3ccccc3C2=O)C(OC(C)=O)C(OC(C)=O)C1OC(C)=O (configuration not stated) | 16 µM | 60.5 µM | 2.66 | 5.83 | 3.93 µM | 12.8 µM | 11.8 µM | 24.8 µM |  |  | 16.3 µM | 31.4 µM | 8.45 µM | 21.4 µM | 3.24 µM | 12 µM | 24.1 | 5.41 | 11.8 | 1.99
